US11318136B2, “Identification of granins as the pathogenic factor of alzheimer's disease and compositions and methods for inhibiting granin aggregation and treating alzheimer's disease” (priority 2018, dated 2022)
Blank lines part the entries; values can stand above or below the compound they belong to.

Assays:
chromogranin A (CGA) = biological target: T1, chromogranin A (CGA) (Bos taurus, UniProt P05059); experiment: Metal-induced chromogranin A aggregation (turbidity); assay type: biochemical, bovine; settings: 1 μM compound, pH 7.4; for Fe2+-induced chromogranin A aggregation / Cu2+-induced chromogranin A aggregation: chromogranin A 0.005 mg/ml (0.1 μM); for Zn2+-induced chromogranin A aggregation: chromogranin A 0.005 mg/ml
T1 construct: from tissue; host or cells: secretory granules of bovine adrenal medulla
T1 sequence (P05059 19-449): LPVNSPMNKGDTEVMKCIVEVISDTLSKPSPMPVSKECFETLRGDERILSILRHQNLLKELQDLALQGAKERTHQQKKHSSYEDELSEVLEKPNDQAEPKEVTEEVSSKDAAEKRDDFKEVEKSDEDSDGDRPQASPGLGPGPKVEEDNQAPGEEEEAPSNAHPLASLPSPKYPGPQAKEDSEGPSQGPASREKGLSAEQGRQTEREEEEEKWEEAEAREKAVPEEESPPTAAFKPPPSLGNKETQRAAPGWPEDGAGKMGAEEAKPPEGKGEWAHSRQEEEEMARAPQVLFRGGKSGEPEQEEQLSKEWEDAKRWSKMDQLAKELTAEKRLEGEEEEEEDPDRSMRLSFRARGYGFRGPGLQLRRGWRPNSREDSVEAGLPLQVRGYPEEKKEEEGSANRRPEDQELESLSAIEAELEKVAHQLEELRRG
Source text: (§1) Materials: The major granin proteins, chromogranin A (CGA), chromogranin B (CGB), and secretogranin II (SgII) were purified from secretory granules of bovine adrenal medulla as described (Park et al., 2002; Yoo, 1995; Yoo and Albanesi, 1990). Chelex 100 was from Bio-Rad (U.S.A), and other chemicals were of highest purity that is commercially available. Purified native chromogranin B (c), secretogranin II (d), and chromogranin A (b) are illustrated in FIG. 4. The flavonoids, stilbenoids, and the other test compounds used in the present experiments were obtained from MedChem Express (U.S.A.), Sigma-Aldrich (U.S.A.), and Santa-Cruz Biotech. (U.S.A.), and the purity of all the compounds tested was 98% or higher.
(§2) Aggregation Experiments: Prior to aggregation studies, it is necessary to remove metal ions that had interacted with granins during purification process from granins through extensive treatments with chelating agents such as Chelex 100 (Bio-Rad, U.S.A) to dissociate the granin aggregates. For metal-induced aggregation studies, Chelex 100-treated CGA, CGB, or SgII in 2 mM MOPS, pH 7.4, was titrated with concentrated metal ions such as CuCl2, FeCl2, and ZnCl2. Aggregation was monitored by measuring the turbidity change with a Beckman DU640 uv/vis spectrophotometer. All the measurements were done at 24° C.
(§3) Materials: The major granin proteins, chromogranin A (CGA), chromogranin B (CGB), and secretogranin II (SgII) were purified from secretory granules of bovine adrenal medulla as described (Park et al., 2002; Yoo, 1995; Yoo and Albanesi, 1990). Chelex 100 was from Bio-Rad, and other chemicals were of highest purity that is commercially available.
as §2, with “100” for “100 (Bio-Rad, U.S.A)”, “Beckman” for “Beckman DU640 uv/vis”

chromogranin B (CGB) = biological target: T2, chromogranin B (CGB) (Bos taurus, UniProt P23389); experiment: Metal-induced chromogranin B aggregation (turbidity); assay type: biochemical, bovine; settings: 1 μM compound, pH 7.4; for Cu2+-induced chromogranin B aggregation / Fe2+-induced chromogranin B aggregation: chromogranin B 0.005 mg/ml (0.06 μM)
T2 construct: from tissue; host or cells: secretory granules of bovine adrenal medulla
T2 sequence (P23389 21-646): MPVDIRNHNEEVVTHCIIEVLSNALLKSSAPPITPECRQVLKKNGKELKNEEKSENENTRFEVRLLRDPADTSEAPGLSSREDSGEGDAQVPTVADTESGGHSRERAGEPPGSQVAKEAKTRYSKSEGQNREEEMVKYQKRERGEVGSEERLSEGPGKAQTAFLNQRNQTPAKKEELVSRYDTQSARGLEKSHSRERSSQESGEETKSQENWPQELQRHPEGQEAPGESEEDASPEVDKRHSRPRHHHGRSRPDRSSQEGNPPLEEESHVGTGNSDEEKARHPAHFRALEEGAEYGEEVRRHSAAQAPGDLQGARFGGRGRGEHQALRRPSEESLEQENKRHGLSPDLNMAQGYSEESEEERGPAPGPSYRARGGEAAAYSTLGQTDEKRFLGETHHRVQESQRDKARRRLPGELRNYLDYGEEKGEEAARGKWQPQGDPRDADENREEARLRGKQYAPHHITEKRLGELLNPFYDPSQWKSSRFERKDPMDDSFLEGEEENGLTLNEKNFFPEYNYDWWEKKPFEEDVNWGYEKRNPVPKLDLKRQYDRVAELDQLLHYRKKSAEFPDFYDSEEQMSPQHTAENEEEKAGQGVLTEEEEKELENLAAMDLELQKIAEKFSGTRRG
Source text: as §1, §2, §3
as §2, with “100” for “100 (Bio-Rad, U.S.A)”, “Beckman” for “Beckman DU640 uv/vis”

chromogranin B = biological target: T3, chromogranin B (Bos taurus, UniProt P23389); experiment: Dynamic light scattering, hydrodynamic state of chromogranin B; assay type: biochemical, bovine; settings: chromogranin B 0.5 mg/ml (6 μM); 0.2 mM compound; 0.2 mM Fe2+; pH 7.4
T3 construct: from tissue; host or cells: secretory granules of bovine adrenal medulla
T3 sequence (P23389 21-646): T2 sequence (P23389 21-646)
Protocol: Molecular dynamic light scattering: To determine whether granins are in a monomer-to-oligomer state or in high molecular weight aggregate states in different solution conditions, dynamic light scattering experiments of granins were carried out with a DynaPro NanoStar of Wyatt Technology (Santa Barbara, Calif.) at 24° C., and the results were analyzed by a program (Dynamics 7.5.0) provided by the company.

secretogranin II (SgII) = biological target: T4, secretogranin II (SgII) (Bos taurus, UniProt P20616); experiment: Metal-induced secretogranin II aggregation (turbidity); assay type: biochemical, bovine; settings: 1 μM compound, pH 7.4
T4 construct: from tissue; host or cells: secretory granules of bovine adrenal medulla
T4 sequence (P20616 31-613): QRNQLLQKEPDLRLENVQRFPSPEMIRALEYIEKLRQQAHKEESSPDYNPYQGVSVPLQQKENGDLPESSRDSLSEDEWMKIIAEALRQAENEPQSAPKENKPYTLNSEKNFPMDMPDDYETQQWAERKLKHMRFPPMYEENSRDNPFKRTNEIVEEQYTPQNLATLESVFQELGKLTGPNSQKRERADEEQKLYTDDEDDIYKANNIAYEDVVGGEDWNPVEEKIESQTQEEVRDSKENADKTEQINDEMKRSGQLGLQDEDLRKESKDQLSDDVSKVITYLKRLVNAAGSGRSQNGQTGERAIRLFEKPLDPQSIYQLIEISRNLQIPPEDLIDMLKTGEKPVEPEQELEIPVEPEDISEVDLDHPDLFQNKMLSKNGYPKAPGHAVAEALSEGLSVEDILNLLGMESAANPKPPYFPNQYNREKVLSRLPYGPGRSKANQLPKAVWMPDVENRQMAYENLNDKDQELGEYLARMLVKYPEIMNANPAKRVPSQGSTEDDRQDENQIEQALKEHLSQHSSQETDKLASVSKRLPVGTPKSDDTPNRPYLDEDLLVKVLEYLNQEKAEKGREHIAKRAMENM
Source text: as §1, §2, §3
as §2, with “100” for “100 (Bio-Rad, U.S.A)”, “Beckman” for “Beckman DU640 uv/vis”

PC12 cells = experiment: MTT cell toxicity assay, granin plus Cu2+ toxicity; assay type: cell-based; settings: 0.1 μM chromogranin A, 0.06 μM chromogranin B, 0.07 μM secretogranin II, 20 μM Cu2+, 1 μM compound
Source text: MTT cell toxicity assay: Cell toxicity assays were done using MTT cell proliferation assay kits from Invitrogen (U.S.A.) and 50,000 PC12 cells/well as described (Cheruvara et al., 2015; Shearman et al., 1994). The assays are designed to detect the level of MTT dye reduction by cells, and the resulting color changes at 570 nm are used as an indicator of cell viability (health). The healthier the cells the higher the color changes.

[1] = secretogranin II 0.005 mg/ml (0.07 μM)

Fe2+-induced chromogranin A aggregation (chromogranin A (CGA)): completely suppressed
Zn2+-induced chromogranin A aggregation (chromogranin A (CGA)): mostly suppressed
Compound: COc1cc(OC)c2c(=O)cc(-c3ccccc3)oc2c1 [5,7-dimethoxyflavone]

Zn2+-induced chromogranin B aggregation (chromogranin B (CGB); chromogranin B 0.005 mg/ml): mostly suppressed
Cu2+-induced chromogranin A aggregation (chromogranin A (CGA)): completely suppressed
Compound: O=c1cc(-c2ccc(O)cc2)oc2cc(O)cc(O)c12 [apigenin]

Cu2+-induced chromogranin B aggregation (chromogranin B (CGB)): mostly suppressed
chromogranin B in large aggregate state (chromogranin B): 5.3%
chromogranin B remaining in low molecular weight oligomer state (chromogranin B): 94.7%
Fe2+-induced secretogranin II aggregation (secretogranin II (SgII); secretogranin II 0.01 mg/ml (0.14 μM)): completely suppressed
Compound: O=c1cc(-c2ccccc2)oc2cc(O)c(O)c(O)c12 [baicalein]

Fe2+-induced secretogranin II aggregation (secretogranin II (SgII); [1]): significantly suppressed
Cu2+-induced chromogranin A aggregation (chromogranin A (CGA)): mostly suppressed
Compound: Nc1ncnc2c1ncn2[C@@H]1O[C@H](CO)C[C@H]1O [cordycepin]

Fe2+-induced secretogranin II aggregation (secretogranin II (SgII); [1]): completely suppressed
Fe2+-induced chromogranin A aggregation (chromogranin A (CGA)): completely suppressed
Compound: O=c1c(O)c(-c2ccc(O)c(O)c2)oc2cc(O)ccc12 [fisetin]

Cu2+-induced secretogranin II aggregation (secretogranin II (SgII); [1]): mostly suppressed
Fe2+-induced chromogranin A aggregation (chromogranin A (CGA)): completely suppressed
Compound: O=c1c(O)c(-c2ccc(O)cc2)oc2cc(O)cc(O)c12 [kaempferol]

Fe2+-induced chromogranin B aggregation (chromogranin B (CGB)): mostly inhibited
Fe2+-induced secretogranin II aggregation (secretogranin II (SgII); [1]): mostly inhibited
Compound: O=c1cc(-c2ccc(O)c(O)c2)oc2cc(O)cc(O)c12 [luteolin]
granin-induced toxicity (cell toxicity, MTT) (PC12 cells): virtually stopped

Fe2+-induced chromogranin A aggregation (chromogranin A (CGA)): completely suppressed
Zn2+-induced chromogranin A aggregation (chromogranin A (CGA)): mostly suppressed
Compound: O=c1c(O)c(-c2ccc(O)cc2O)oc2cc(O)cc(O)c12 [morin]

Fe2+-induced chromogranin B aggregation (chromogranin B (CGB)): completely suppressed
Fe2+-induced chromogranin A aggregation (chromogranin A (CGA)): completely suppressed
Compound: O=c1c(O)c(-c2cc(O)c(O)c(O)c2)oc2cc(O)cc(O)c12 [myricetin]

Compound: O=c1c(O)c(-c2ccc(O)c(O)c2)oc2cc(O)cc(O)c12 [quercetin]
Cu2+-induced chromogranin B aggregation (chromogranin B (CGB)): completely suppressed
Fe2+-induced secretogranin II aggregation (secretogranin II (SgII); [1]): completely suppressed

Fe2+-induced chromogranin B aggregation (chromogranin B (CGB)): mostly suppressed
Zn2+-induced secretogranin II aggregation (secretogranin II (SgII); [1]): significantly suppressed
Compound: Oc1ccc(C=Cc2cc(O)cc(O)c2)cc1 [resveratrol]

Fe2+-induced chromogranin B aggregation (chromogranin B (CGB)): completely suppressed
Cu2+-induced chromogranin A aggregation (chromogranin A (CGA)): mostly suppressed
Compound: COc1ccc(-c2cc(=O)c3c(OC)c(OC)c(OC)c(OC)c3o2)cc1 [tangeretin]

Fe2+-induced secretogranin II aggregation (secretogranin II (SgII); [1]): significantly suppressed
Fe2+-induced chromogranin A aggregation (chromogranin A (CGA)): significantly suppressed
Compound: COc1cc2ncnc(Nc3cccc(Cl)c3)c2cc1OC [tyrphostin AG1478]

Compound: epigallocatechin 3-gallate [EGCG]
Cu2+-induced secretogranin II aggregation (secretogranin II (SgII); [1]): mostly suppressed
Fe2+-induced secretogranin II aggregation (secretogranin II (SgII); [1]): completely suppressed
